Experimental data taken from patent US11357782B2, “Treprostinil administration by inhalation” (priority 2006, dated 2022).

Key:
[1] = tested on: patients with pre-existing gas exchange problems; experiment: Ventilation-perfusion matching by multiple inert gas elimination technique (MIGET); conditions: during NO-inhalation (20 ppm); mean±95% confidence interval; n=5
Procedure: The impact of SMI-TRE on ventilation-perfusion matching was assessed in five patients (30 μg TRE, n=2; 45 μg TRE, n=1; 60 μg TRE, n=2) with pre-existing gas exchange problems by use of the multiple inert gas elimination technique (MIGET), see e.g. Wagner PD, Saltzman HA, West JB. Measurement of continuous distributions of ventilation-perfusion ratios: theory. J Appl Physiol. 1974; 36:588-99; Ghofrani HA, Wiedemann R, Rose F, Schermuly RT, Olschewski H, Weissmann N et al. Sildenafil for treatment of lung fibrosis and pulmonary hypertension: a randomised controlled trial. Lancet. 2002; 360:895-900, both incorporated herein in their entirety.
The inhalation of a highly concentrated aerosol can be in theory prone to disturbances of gas exchange because the deposition of even small amounts of aerosol may deliver high doses locally and thereby antagonize the hypoxic pulmonary vasoconstriction in poorly ventilated areas. This would then lead to increased shunt flow or increase of low ventilation/perfusion (V/Q) areas. This question was addressed in five patients with the multiple inert gas elimination technique (MIGET), the gold-standard for intrapulmonary V/Q ratio determination. The MIGET patients were selected for pre-existing gas exchange limitations. […] Etiologies were iPAH (n=1), CTEPH (n=3), pulmonary fibrosis (n=1).

[2] = tested on: patients with moderate to severe precapillary pulmonary hypertension; experiment: Study i) randomized crossover study of inhaled treprostinil vs inhaled iloprost, right heart catheter; format: in vivo, human
Procedure: All inhalations were performed with the […]® ultrasonic nebulizer ([…], Germany). Study i) was a randomized, open-label, single-blind crossover study. […] Patient characteristics and hemodynamic as well as gas exchange parameters are outlined in Table 3. Each patient inhaled both iloprost and treprostinil on the same day during right heart catheter investigation; the drugs were administered consecutively with a one hour interval between the drug applications. One half of the study patients initially inhaled treprostinil and then inhaled iloprost (n=22), while the other half initially inhaled iloprost and then inhaled treprostinil (n=22). Patients were randomized to one of the two groups and blinded as to the study drugs. Drug effects were monitored for 60 minutes after each inhalation.

Row | Structure (SMILES) | shunt flow [1] [%] | area under the curve (AUC) of PVR decrease ([2]; 7.5 μg inhaled in 6 minutes, start of inhalation until 60 min, mean±95% confidence interval) [%] | gas exchange ([2]; after inhalation) | systemic arterial pressure (SAP) ([2]; after inhalation) | side effects (transient flush, headache) ([2]; iloprost 7.5 μg, treprostinil 7.5-15 μg) | maximum effect on PVR ([2]; iloprost vs treprostinil, pooled) | time to maximum effect on PVR after inhalation ([2]; pooled n=44, mean±SEM, p<0.0001) [min]
1 | [N]=O [NO, nitric oxide] | 5.4±3.0 | – | – | – | – | – | –
2 | CC#CCC(C)[C@H](O)/C=C/[C@@H]1[C@H]2C/C(=C/CCCC(=O)O)C[C@H]2C[C@H]1O (stereo partly shown) [iloprost] | – | 7.7±3.7 | did not affect gas exchange | transient decrease | occasionally observed mild side effects | comparable | 8 ± 1
